This is an account of results in patent US20120172397A1, “HEXAHYDROCYCLOPENTA[f]INDAZOLE 5-YL ETHANOLS AND DERIVATIVES THEREOF AS SELECTIVE GLUCOCORTICOID RECEPTOR MODULATORS” (MERCK SHARP & DOHME CORP., priority 2009, published 2012).

Where two headings read alike, the source gives them in different places.

For the experiment, the system named is human GR (TNFα promoter β-lactamase reporter, U937 cells). In words: Transrepression Assay (GITAR), TNFα-β-lactamase reporter in U937 cells. It counts as cell-based. The note with it: for EC50: TNFα-β-lactamase reporter, PMA/LPS stimulated, read-out: Transrepression U937 Cells GITAR IP (inflection point); for Emax / Transrepression U937 Cells GITAR Emax: activity repressed by 100 nM dexamethasone set as 100%. An excerpt: This assay assesses the ability of test compounds to control transcription from the TNFα-β-lactamase reporter gene in U937 cells, a human myelomonocytic leukemia cell line that naturally expresses the human GR. The assay measures compound dependent-repression of the TNFa promoter linked to a reporter gene.
The human U937cells that had been stablely transfected with the TNF-α promoter driving β-lactamase are used for this assay. U937 cells contain an endogenous glucocorticoid receptor (GR). Cells are maintained in RPMI 1640 Growth medium (Gibco Cat#11875-093) containing 25 mM HEPES, 10% FBS, 2 mM L-Glutamine, 1 mM Sodium pyruvate, 25 μg/ml Gentamicin (Gibco Cat#15710-064), 1:1000 2-Mercaptoethanol (Gibco Cat#21985-023) and 0.8 mg/ml G418 (Gibco Cat#10131-027). The density of the cells in the flask needs to be about 1×106−3×10^6/ml at the time of harvest. Usually, the cells are split to 1.2˜1.4×10^5/ml (1:10) 3 days prior to the assay. 50,000 cells/well are plated in 96 well black-walled plates the day of assay. Test compounds are added 10 μL/well, and cells are incubated at 37° C. for 30-45 min. For assaying compounds, first dilute 1:10 in DMSO to make 1 mM, then further dilute 1:100 in medium to make 10 × stock prior to adding to the cells. Add 50 ng/ml PMA (Sigma, cat# P8139) 10 μL/well to a final concentration 5 ng/ml, and 1 μg/ml LPS (Sigma, cat# L4130) 10 μL/well to a final concentration 100 ng/ml. Incubate cells at […] overnight for˜18 hr. PMA is stored frozen as 100 μg/ml stock in DMSO. Dilute 1:10 in DMSO for a working stock of 10 μg/ml and store at −20° C. For assaying, dilute the 10 μg/ml working stock 1:200 in medium to make a 10× solution (50 ng/ml). Store frozen LPS at 1 mg/ml in PBS, dilute 1:1000 in medium to make 10× (1 μg/ml) for the assay. Add 6× loading buffer (CCF2-AM) 20 μL/well, and incubate at room temperature for 70˜90 min. […] The activity repressed by 100 nM dexamethasone alone is set as 100% activity.

Setting [1] is: Homo sapiens, U-937, U937 cells.

For the compound `COc1ccc(C(O)C[C@H]2CCC3=Cc4c(cnn4-c4cccnc4)C[C@@]32C)cc1` (stereo partly drawn) [Example 5, 1-(4-methoxyphenyl)-2-[(4αR,5R)-4α-methyl-1-(pyridin-3-yl)-1,4,4α,5,6,7-hexahydrocyclopenta[f]indazol-5-yl] ethanol], under setting [1], the EC50 amounted to 20.7 nM and the Emax is 87.3%.

As to `COc1ccccc1C(O)C[C@H]1CCC2=Cc3c(cnn3-c3cccnc3)C[C@@]21C` (single isomer, unassigned) [Example 2a], where the note is “U937 cells”, the EC50 was determined as 229 nM and the “Transrepression U937 Cells GITAR Emax” value stood at 79.5%.

As to `COc1cccc(C(O)C[C@H]2CCC3=Cc4c(cnn4-c4cccnc4)C[C@@]32C)c1` (single isomer, unassigned) [Example 4a], for the setting “U937 cells”, the EC50 is 114 nM and the “Transrepression U937 Cells GITAR Emax” value came to 74.8%.

As to `C[C@]12Cc3cnn(-c4cccnc4)c3C=C1CC[C@@H]2CC(O)c1ccccn1` (single isomer, unassigned) [Example 6a], the Emax under setting [1] came to 16.6%. Moreover, the EC50 (U937 cells) came to 558 nM.

`CC(O)(C[C@H]1CCC2=Cc3c(cnn3-c3cccnc3)C[C@@]21C)c1ccccc1` (single isomer, unassigned) [Example 7a] yielded an Emax under setting [1] of 84.2%. Moreover, the EC50 (U937 cells) came out at 78.7 nM.

Turning to `C[C@]12Cc3cnn(-c4cccnc4)c3C=C1CC[C@@H]2CC(O)c1ccccc1` (single isomer, unassigned) [Example 1a], where the note is “U937 cells”, the EC50 worked out at 277 nM and the “Transrepression U937 Cells GITAR Emax” value was determined as 75.4%.

With `COc1ccc(C(O)C[C@H]2CCC3=Cc4c(cnn4-c4cccnc4)C[C@@]32C)cn1` (stereo partly drawn) [Example 3, 1-(6-methoxypyridin-3-yl)-2-[(4αR,5R)-4α-methyl-1-(pyridin-3-yl)-1,4,4α,5,6,7-hexahydrocyclopenta[f]indazol-5-yl] ethanol], under setting [1], the EC50 came out at 200 nM and the Emax was 85.2%.

For `COc1ccccc1C(O)C[C@H]1CCC2=Cc3c(cnn3-c3cccnc3)C[C@@]21C` (single isomer, unassigned) [Example 2b], the Emax under setting [1] was 73.9%. For the same compound, where the note is “U937 cells”, the EC50 turned out to be 1160 nM.

In the case of `C[C@]12Cc3cnn(-c4cccnc4)c3C=C1CC[C@@H]2CC(O)c1ccccn1` (single isomer, unassigned) [Example 6b], where the note is “U937 cells”, the EC50 turned out to be 1380 nM and the “Transrepression U937 Cells GITAR Emax” value was 30.0%.

Consider `CC(O)(C[C@H]1CCC2=Cc3c(cnn3-c3cccnc3)C[C@@]21C)c1ccccc1` (single isomer, unassigned) [Example 7b], for which, under “U937 cells”, the EC50 stood at 393 nM and the “Transrepression U937 Cells GITAR Emax” value is 65.9%.

As to `COc1cccc(C(O)C[C@H]2CCC3=Cc4c(cnn4-c4cccnc4)C[C@@]32C)c1` (single isomer, unassigned) [Example 4b], for the setting “U937 cells”, the EC50 worked out at 548 nM and the “Transrepression U937 Cells GITAR Emax” value is listed as 47.0%.

In the case of `C[C@]12Cc3cnn(-c4cccnc4)c3C=C1CC[C@@H]2CC(O)c1ccccc1` (single isomer, unassigned) [Example 1b], under “U937 cells”, the EC50 came out at 1720 nM and the “Transrepression U937 Cells GITAR Emax” value is 49.3%.

As usually defined, the Emax is the greatest response seen or fitted, relative to the assay's reference.
